Tests used:
[1] = molecular target: Transient receptor potential cation channel subfamily V member 4 (Rattus norvegicus, UniProt Q9ERZ8); test: Antagonist activity at rat TRPV4 assessed as inhibition of 4alpha-PDD-induced activation
[2] = molecular target: Transient receptor potential cation channel subfamily V member 4 (Homo sapiens, UniProt Q9HBA0); test: Antagonist activity at human TRPV4 assessed as inhibition of 4alpha-PDD-induced activation
[3] = Antagonist activity at guinea pig TRPV4 assessed as inhibition of 4alpha-PDD-induced activation; parameters: species or system Cavia porcellus
[4] = Stability in human liver microsomes assessed as parent compound remaining after 30 mins in presence or absence of NADPH; assay type: ADME, microsome; conditions: read-out: Stability
[5] = Stability in rat liver microsomes assessed as parent compound remaining after 30 mins in presence or absence of NADPH; assay type: ADME, microsome; conditions: read-out: Stability
[6] = Selectivity ratio of IC50 for rat TRPV4 to IC50 for human TRPV4
[7] = Protein binding in guinea pig; assay type: ADME, Cavia porcellus; conditions: read-out: PB (converted)
Cavia porcellus = test: Analgesic activity in po dosed Dunkin-Hartley guinea pig complete Freund's adjuvant-induced mechanical hyperalgesia model assessed as reversal in paw withdrawal threshold measured up to 6 hrs post dose relative to control; assay type: functional
[8] = Ratio of free plasma concentration to IC50 for TRPV4 in guinea pig; assay type: ADME, cell-free, Cavia porcellus
[9] = Plasma concentration in po dosed Dunkin-Hartley guinea pig complete Freund's adjuvant-induced mechanical hyperalgesia model measured up to 6 hrs post dose; assay type: ADME, organism-based, Cavia porcellus
Rattus norvegicus [10] = test: Analgesic activity in rat assessed as reversal of complete Freund's adjuvant-induced mechanical hyperalgesia at 30 mg/kg, po after 1 hr relative to control; assay type: functional
Rattus norvegicus [11] = test: Analgesic activity in rat assessed as reversal of complete Freund's adjuvant-induced mechanical hyperalgesia at 30 mg/kg, po after 5 hrs relative to control; assay type: functional

Sequence of Transient receptor potential cation channel subfamily V member 4 (Rattus norvegicus, UniProt Q9ERZ8) (Q9ERZ8 whole entry): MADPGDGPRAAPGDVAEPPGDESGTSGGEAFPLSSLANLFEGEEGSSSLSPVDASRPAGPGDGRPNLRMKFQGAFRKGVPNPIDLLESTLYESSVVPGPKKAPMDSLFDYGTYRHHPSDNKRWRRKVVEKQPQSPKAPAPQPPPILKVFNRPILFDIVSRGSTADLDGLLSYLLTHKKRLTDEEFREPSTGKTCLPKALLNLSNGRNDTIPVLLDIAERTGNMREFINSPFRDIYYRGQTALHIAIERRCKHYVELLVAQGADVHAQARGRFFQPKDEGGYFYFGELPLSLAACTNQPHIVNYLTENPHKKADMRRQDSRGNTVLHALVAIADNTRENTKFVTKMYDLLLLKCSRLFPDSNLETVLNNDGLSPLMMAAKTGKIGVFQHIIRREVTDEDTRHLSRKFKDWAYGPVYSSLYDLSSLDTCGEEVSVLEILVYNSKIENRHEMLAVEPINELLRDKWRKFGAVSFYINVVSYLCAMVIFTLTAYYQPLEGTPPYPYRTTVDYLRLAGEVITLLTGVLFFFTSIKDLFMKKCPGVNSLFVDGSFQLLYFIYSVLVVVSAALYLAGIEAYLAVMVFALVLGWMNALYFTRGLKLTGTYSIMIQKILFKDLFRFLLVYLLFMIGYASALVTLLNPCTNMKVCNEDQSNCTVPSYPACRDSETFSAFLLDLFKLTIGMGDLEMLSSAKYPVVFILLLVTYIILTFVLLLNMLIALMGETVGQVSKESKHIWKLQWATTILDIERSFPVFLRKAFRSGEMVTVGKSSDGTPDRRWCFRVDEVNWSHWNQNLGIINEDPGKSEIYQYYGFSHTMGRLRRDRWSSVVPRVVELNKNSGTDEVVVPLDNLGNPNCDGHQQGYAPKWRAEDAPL
Sequence of Transient receptor potential cation channel subfamily V member 4 (Homo sapiens, UniProt Q9HBA0) (Q9HBA0 whole entry): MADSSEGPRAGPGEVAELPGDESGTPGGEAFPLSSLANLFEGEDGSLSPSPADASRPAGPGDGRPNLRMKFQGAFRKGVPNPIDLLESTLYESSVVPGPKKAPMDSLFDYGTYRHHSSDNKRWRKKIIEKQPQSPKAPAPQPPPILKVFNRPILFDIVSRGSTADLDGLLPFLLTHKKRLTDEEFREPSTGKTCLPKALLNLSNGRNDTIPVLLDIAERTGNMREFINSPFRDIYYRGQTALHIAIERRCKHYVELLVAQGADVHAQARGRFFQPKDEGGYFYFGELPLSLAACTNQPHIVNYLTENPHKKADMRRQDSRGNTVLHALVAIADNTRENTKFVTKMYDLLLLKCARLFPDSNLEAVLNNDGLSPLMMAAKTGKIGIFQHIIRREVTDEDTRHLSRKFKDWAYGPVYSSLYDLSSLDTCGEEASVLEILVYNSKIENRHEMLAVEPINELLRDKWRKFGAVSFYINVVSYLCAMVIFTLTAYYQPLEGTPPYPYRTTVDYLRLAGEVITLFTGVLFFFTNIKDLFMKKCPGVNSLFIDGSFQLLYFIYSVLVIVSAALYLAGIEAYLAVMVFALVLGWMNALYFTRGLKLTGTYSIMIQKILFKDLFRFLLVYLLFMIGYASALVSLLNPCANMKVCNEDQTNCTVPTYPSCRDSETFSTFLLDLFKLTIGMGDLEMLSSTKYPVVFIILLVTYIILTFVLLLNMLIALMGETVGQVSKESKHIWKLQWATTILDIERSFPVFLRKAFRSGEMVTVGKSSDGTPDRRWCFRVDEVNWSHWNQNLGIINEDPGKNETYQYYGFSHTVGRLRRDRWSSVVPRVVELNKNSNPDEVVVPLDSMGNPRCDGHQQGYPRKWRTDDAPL

Compound | IC50 [1] | IC50 [2] | IC50 [3] | remaining at 0.5 h [4] | remaining at 0.5 h [5] | other results
COC(=O)N1CCN(C(=O)c2ccc(Nc3nc(-c4sc(C)nc4C)cs3)nc2)CC1 | 1100 nM | 37 nM | 56 nM | 94.1% | 77.9% | 
Cc1nc(C)c(-c2csc(Nc3ccc(C(=O)N4C5CCC4CC(=O)C5)cn3)n2)s1 | 360 nM | 24 nM | 45 nM |  |  | Ratio IC50 [6]: 15
Cc1nc(C)c(-c2csc(Nc3ccc(C(=O)N4C5COCC4CC(=O)C5)cn3)n2)s1 | 800 nM | 19 nM | 27 nM |  |  | Ratio IC50 [6]: 42; fraction unbound [7]: 0.1; Activity (Cavia porcellus): 30.8%; Ratio [8]: 1.9; concentration at 6 h [9]: 515 ng/mL
CNC(=O)N1CC2CCC(C1)N2C(=O)c1ccc(Nc2nc(-c3sc(C)nc3C)cs2)nc1 |  | 770 nM |  | 83.5% | 88.5% | 
Cc1nc(C)c(-c2csc(Nc3ccc(C(=O)N4[C@@H]5CC[C@H]4CC(=NOCC(C)(C)O)C5)cn3)n2)s1 |  | 4.4 nM | 8.3 nM | 70% | 75.5% | 
Cc1nc(C)c(-c2csc(Nc3ccc(C(=O)N4C5CCC4CNC5)cn3)n2)s1 |  | 620 nM |  | 64.9% | 63.9% | 
Cc1nc(C)c(-c2csc(Nc3ccc(C(=O)N4[C@@H]5CC[C@H]4C[C@@H](N)C5)cn3)n2)s1 |  | 530 nM |  |  |  | 
Cc1nc(C)c(-c2csc(Nc3ccc(C(=O)N4[C@@H]5CC[C@H]4C[C@@H](Oc4ncc(C(F)(F)F)cn4)C5)cn3)n2)s1 | 120 nM | 4.8 nM | 2.7 nM |  |  | 
Cc1nc(C)c(-c2csc(Nc3ccc(C(=O)N4[C@@H]5CC[C@H]4C[C@@H](OCCO)C5)cn3)n2)s1 | 200 nM | 6.2 nM | 10 nM |  |  | 
Cc1nc(C)c(-c2csc(Nc3ccc(C(=O)N4[C@@H]5CC[C@H]4C[C@@H](O)C5)cn3)n2)s1 | 1000 nM | 32 nM | 33 nM |  |  | 
Cc1nc(C)c(-c2csc(Nc3ccc(C(=O)N4[C@@H]5CC[C@H]4C[C@@H](CO)C5)cn3)n2)s1 |  | 41 nM |  |  |  | 
Cc1nc(C)c(-c2csc(Nc3ccc(C(=O)N4[C@@H]5CC[C@H]4C[C@@H](NC(=O)CC(F)(F)F)C5)cn3)n2)s1 |  | 19 nM |  |  |  | 
CC(=O)N[C@H]1C[C@H]2CC[C@@H](C1)N2C(=O)c1ccc(Nc2nc(-c3sc(C)nc3C)cs2)nc1 |  | 80 nM |  |  |  | 
Cc1c(C(=O)Nc2cccc(C(F)(F)F)c2)cc(-c2ccccc2)n1CCCN1CCOCC1 |  | 57 nM |  |  |  | 
Cc1nc(C)c(-c2csc(Nc3ccc(C(=O)N4[C@@H]5CC[C@H]4C[C@@H](OC(=O)NCCF)C5)cn3)n2)s1 | 290 nM | 6.7 nM | 6.2 nM |  |  | 
Cc1nc(C)c(-c2csc(Nc3ccc(C(=O)N4[C@@H]5CC[C@H]4C/C(=N/OC4CCN(C)CC4)C5)cn3)n2)s1 | 57 nM | 4.5 nM | 6.4 nM | 77% | 83.7% | 
Cc1nc(C)c(-c2csc(Nc3ccc(C(=O)N4[C@@H]5CC[C@H]4C/C(=N/OCCO)C5)cn3)n2)s1 |  | 6 nM |  | 84.9% | 74.5% | 
CC(=O)N1CC2CCC(C1)N2C(=O)c1ccc(Nc2nc(-c3sc(C)nc3C)cs2)nc1 | 600 nM | 32 nM | 21 nM | 59.4% | 92.1% | 
Cc1nc(C)c(-c2csc(Nc3ccc(C(=O)N4[C@@H]5CC[C@H]4C[C@H](O)C5)cn3)n2)s1 |  | 650 nM |  |  |  | 
COc1ccc2c(c1)c(CC(=O)O)c(C)n2C(=O)c1ccc(Cl)cc1 [INDOMETHACIN] |  |  |  |  |  | Activity (Rattus norvegicus [10]): 11.4%; Activity (Rattus norvegicus [11]): 6.1%
Cc1nc(C)c(-c2csc(Nc3ccc(C(=O)N4[C@@H]5CC[C@H]4C/C(=N/OCC(N)=O)C5)cn3)n2)s1 |  | 24 nM |  | 89% | 84.8% | 
Cc1nc(C)c(-c2csc(Nc3ccc(C(=O)N4C5CCC4CN(c4ccc(Cl)cc4)C5)cn3)n2)s1 | 410 nM | 3.2 nM | 8.8 nM | 72.6% | 68.3% | 
CO[C@H]1C[C@H]2CC[C@@H](C1)N2C(=O)c1ccc(Nc2nc(-c3sc(C)nc3C)cs2)nc1 |  | 2.4 nM |  |  |  | 
Cc1nc(C)c(-c2csc(Nc3ccc(C(=O)N4[C@@H]5CC[C@H]4C/C(=N/O)C5)cn3)n2)s1 |  | 8.4 nM |  | 80.5% | 38.8% | 

Further compounds by falling IC50 [2], results first:

IC50 [1] | IC50 [2] | IC50 [3] | remaining at 0.5 h [4] | remaining at 0.5 h [5] | Compound | other results
100 nM | 3.2 nM | 4.3 nM | 57.9% | 71.5% | Cc1nc(C)c(-c2csc(Nc3ccc(C(=O)N4C5CNCC4COC5)cn3)n2)s1 | 
57 nM | 2.9 nM | 3.3 nM | 64.5% | 59.1% | Cc1nc(C)c(-c2csc(Nc3ccc(C(=O)N4[C@@H]5CC[C@H]4C/C(=N/OCCCO)C5)cn3)n2)s1 | 
 | 2.8 nM |  | 0.58% | 0% | Cc1nc(C)c(-c2csc(Nc3ccc(C(=O)N4C5CCC4CN(C4CCCCC4)C5)cn3)n2)s1 | 
 | 2.1 nM |  | 0% | 8.5% | Cc1nc(C)c(-c2csc(Nc3ccc(C(=O)N4C5CCC4CN(CC(F)(F)F)C5)cn3)n2)s1 | 
 | 1.9 nM |  |  |  | CCNC(=O)O[C@H]1C[C@H]2CC[C@@H](C1)N2C(=O)c1ccc(Nc2nc(-c3sc(C)nc3C)cs2)nc1 | 
 | 1.8 nM |  | 33.7% | 43.8% | COC(=O)N1CC2CCCC(C1)N2C(=O)c1ccc(Nc2nc(-c3sc(C)nc3C)cs2)nc1 | 
53 nM | 1.7 nM | 2 nM | 48.6% | 53% | COC(=O)N1CC2CCC(C1)N2C(=O)c1ccc(Nc2nc(-c3sc(C)nc3C)cs2)nc1 | 
29 nM | 1.1 nM | 2.3 nM | 43% | 49.6% | Cc1nc(C)c(-c2csc(Nc3ccc(C(=O)N4[C@@H]5CC[C@H]4C/C(=N/OC[C@@H](O)C(F)(F)F)C5)cn3)n2)s1 | 
 | 1 nM |  | 79.1% | 12.5% | CO/N=C1\C[C@H]2CC[C@@H](C1)N2C(=O)c1ccc(Nc2nc(-c3sc(C)nc3C)cs2)nc1 | 
20 nM | 0.9 nM | 0.7 nM | 72.7% | 89% | Cc1nc(C)c(-c2csc(Nc3ccc(C(=O)N4C5CCC4CN(c4ccc(Cl)cn4)C5)cn3)n2)s1 | 
15 nM | 0.57 nM | 2.7 nM | 64.1% | 49.2% | COC(=O)N1CCN(C(=O)c2ccc(Nc3nc(-c4sc(C)nc4C)cs3)nc2)C(C(F)(F)F)C1 (stereo not given) | 
18 nM | 0.36 nM | 2 nM | 47.7% | 50.4% | Cc1nc(C)c(-c2csc(Nc3ccc(C(=O)N4[C@@H]5CC[C@H]4C/C(=N/OCC(F)(F)F)C5)cn3)n2)s1 | 
16 nM | 0.3 nM | 2 nM | 76.4% | 68.4% | Cc1nc(C)c(-c2csc(Nc3ccc(C(=O)N4C5CCC4CN(c4ncc(Cl)cn4)C5)cn3)n2)s1 | 
